From patent US20150152088A1, “ALKYNYL HETEROAROMATIC COMPOUND AND USE THEREOF” (Nanjing Sanhome Pharmaceutical Co., Ltd., priority 2012, published 2015)

How the values were obtained:
Human ABL1 (T315I) = molecular target: T1, Human ABL1 (T315I) (Homo sapiens, UniProt P00519, T315I); assay: ABL1 (T315I) kinase activity, [γ-33P] ATP / Abltide radiometric assay; assay type: biochemical; details: ATP 1.0 μM, 120 minutes, room temperature
T1 construct: purchased Millipore Corporation, USA #14-522
Method: Kinase activity was determined according to the manufacturer's instructions. Peptide substrate is Abltide ([…]), purchased from Millipore Corporation, USA. Ion exchange chromatography paper P81 was purchased from Whatman Company, UK. [γ-33P] ATP was purchased from Perkin Elmer Company.
[γ-33P] ATP was added at room temperature, with final concentration of 1.0 μM, and the reaction was performed for 120 minutes. 20 μl aliquots were transferred onto the ion exchange chromatography paper P81. The paper was thoroughly washed with a 0.75% phosphoric acid solution three times, and then washed with acetone once. Finally, γ-33P radioactivity was measured.

[1] = tested on: K562 chronic myelogenous leukemia cells; assay: MTT assay, in vitro inhibitory activity on cells; assay type: cell-based; details: Homo sapiens, K562, 48 h, typically 48 hours
From the text: (§1) In this example, MTT assay was used to detect in vitro inhibitory activity of the compounds prepared according to the above examples on the cells. […] AP24534 was purchased from Shanghai Xinkuo Chemical Technology Co., Ltd., China.
(§2) Dimethyl sulfoxide (DMSO) is capable of dissolving formazan in cells, and absorbance value can be measured at a wavelength of 490 nm by an enzyme-linked immunometric meter, which reflects the number of living cells. Within a certain range of the number of cells, the amount of MTT crystals formed is proportional to the number of living cells.
(§3) 1. […] 2. Culturing in a 37° C., 5% CO2 incubator and keeping the cells adhering to the wall of the well. 3. […] 4. Carefully removing the supernatant, gently washing with PBS and discarding the supernatant again. 5. […] 6. Terminating culturing and carefully discarding the medium in each well. 7. Adding 150 μl dimethyl sulfoxide into each well, shaking for 10 minutes at low speed in a shaker, to make crystals fully dissolved. 8. Measuring the absorbance of each well at 490 nm by an enzyme-linked immunometric meter. 9. Calculating IC50 values.

[2] = tested on: Ovcar-3 human ovarian cancer cells; assay: MTT assay, in vitro inhibitory activity on cells; assay type: cell-based; details: typically 48 hours
From the text: as §1, §2, §3

[3] = tested on: Saos-2 human osteosarcoma cells; assay: MTT assay, in vitro inhibitory activity on cells; assay type: cell-based; details: typically 48 hours
From the text: as §1, §2, §3

[4] = tested on: MDA-MB-231 human breast cancer cells; assay: MTT assay, in vitro inhibitory activity on cells; assay type: cell-based; details: typically 48 hours
From the text: as §1, §2, §3

[5] = tested on: KU812 human peripheral blood basophilic leukocytes; assay: CellTiter-Glo cell viability assay on Bcr-Abl-positive cells; details: KU812, 72 h, read-out: IC50 KU812
[6] = tested on: MEG-01 human megakaryocyte leukemia cells; assay: as above; assay type: cell-based; details: 72 hours
Method: Each compound was dissolved in DMSO to 10 mM, diluted to 50 μM with complete medium, and then diluted to 10 μM with 0.1% DMSO in complete medium. The resulting solution was 10-fold serially diluted and formulated into 10 concentrations.
MEG-01 human megakaryocyte leukemia cells and KU812 human peripheral blood basophilic leukocytes, purchased from ATCC Company, USA.
6) Calculating cell viability (Cell Viability)=(RLUsample/RLUnegative)×100%, wherein RLUsample was RLU (Relative Light Units) value of the well added with the compound and RLUnegative was RLU value of the well without the compound (that is, cell control, which was treated with the same concentration of DMSO). Data were processed by using a four-parameter logistic fitting module in Graphpad Prism 4.0 software to calculate IC50.

IC50 (Human ABL1 (T315I)) [µM]	IC50 [1] [µM]	IC50 [2] [µM]	IC50 [3] [µM]	IC50 [4] [µM]	IC50 [6] [µM]	Compound	IC50 [5] [µM]
0.00451	1.34	4.47	1.07	2.45	–	Cc1ccc(C(=O)Nc2ccc(CN3CCN(C)CC3)c(C(F)(F)F)c2)cc1C#Cc1ccc2cncnc2c1 [Example 3, 3-((quinazolin-7-yl)ethynyl)4-methyl-N-[4-((4-methylpiperazin-1-yl)methyl)-3-trifluoromethylphenyl]benzamide]	–
0.0023	2.44	6.23	1.59	1.3	–	Cc1ccc(C(=O)Nc2ccc(CN3CCN(C)CC3)c(C(F)(F)F)c2)cc1C#Cc1cccc2ncncc12 [Example 4, 3-((quinazolin-5-yl)ethynyl)-4-methyl-N-[4-((4-methylpiperazin-1-yl)methyl)-3-trifluoromethylphenyl]benzamide]	–
–	0.67	2.35	4.7	4.14	–	CNc1ncc2c(F)cc(C#Cc3cc(C(=O)Nc4ccc(CN5CCN(C)CC5)c(C(F)(F)F)c4)ccc3C)cc2n1 [Example 7, 3-((5-fluoro-2-methylaminoquinazolin-7-yl)ethynyl)-4-methyl-N-[4-((4-methylpiperazin-1-yl)methyl)-3-trifluoromethylphenyl]benzamide]	–
0.0058	5.34	–	–	–	0.00149	Cc1ccc(C(=O)Nc2ccc(CN3CCN(C)CC3)c(C(F)(F)F)c2)cc1C#Cc1ccc2c(=O)[nH]cnc2c1 [Example 9, 3-((4-oxo-3,4-dihydroquinazolin-7-yl)ethynyl)-4-methyl-N-[4-((4-methylpiperazin-1-yl)methyl)-3-trifluoromethylphenyl]benzamide]	0.000518
–	0.9	4.72	1.79	2.79	–	Cc1ccc(C(=O)Nc2ccc(CN3CCN(C)CC3)c(C(F)(F)F)c2)cc1C#Cc1ccc2cnc(N)nc2c1 [Example 11, 3-((2-aminoquinazolin-7-yl)ethynyl)-4-methyl-N-[4-((4-methylpiperazin-1-yl)methyl)-3-trifluoromethylphenyl]benzamide]	–
0.0095	4.12	–	–	–	0.00356	Cc1ccc(C(=O)Nc2ccc(CN3CCN(C)CC3)c(C(F)(F)F)c2)cc1C#Cc1ccc2c(N)ncnc2c1 [Example 13, 3-((4-aminoquinazolin-7-yl)ethynyl)-4-methyl-N-[4-((4-methylpiperazin-1-yl)methyl)-3-trifluoromethylphenyl]benzamide]	0.00117
–	0.66	6.97	2.13	2.11	–	Cc1ccc(NC(=O)Nc2ccc(CN3CCN(C)CC3)c(C(F)(F)F)c2)cc1C#Cc1cccc2[nH]nc(N)c12 [Example 32, N-[3-((3-amino-1H-indazol-4-yl)ethynyl)-4-methyl]phenyl-N′-[4-((4-methylpiperazin-1-yl)methyl)-3-trifluoromethylphenyl]urea]	–
